Test results: patent US6037490A, “Boron-containing amino carboxylic acid compounds and uses thereof” (priority 1997, dated 2000)
Entries after “also recorded” stand apart in the source; their conditions may differ. Read-outs that look alike come from different tables or passages of the source.

Tests used:
A549 lung cancer cells [1] = experiment: Neutron irradiation (252Cf) cell survival, kill constant; type: cell-based; details: regression of semi-log cell survival plots, 252Cf neutrons
Protocol: The irradiation was performed by known techniques. The ^252 Cf isotope is a useful source of neutrons for BNCT (Hatanaka 1991, A). The neutron spectrum and beam characteristics are similar to those of reactor fission sources with a most probable energy of about 1 MeV. A 50 mg source of ^252 Cf moderated by water provides a source of 1×10^9 thermal neutrons/cm^2 /sec at a distance of 3 cm (personnel communication Dr. R. Martin). The half-life of ^252 Cf is 2.65 years, thus this provides a simple and reliable source of neutrons for BNCT in locations without suitable nuclear reactors.
This work was performed using sealed ^252 Cf source capsules in a hot cell without transferable radioactive contamination using a double tube arrangement which contained 1.0 ml of A 549 lung cancer cells (maximum cell number 2×10^6 cells/ml and minimum cell number 2×10^3 cells/ml). The cancer cells were exposed to approximately 2×10^8 thermal neutrons per cm^2 per second from 30 mg of ^252 Cf. The flux of neutrons was determined by the irradiation of manganese wire and subsequent analysis of activation. The duration of exposure of cells was 30 sec. 1, 1.5, 2.0 and 4.0 minutes for control groups and boronated compounds. Following radiation exposure, the A 549 lung cancer cells were placed on ice for subculturing and cell survival studies.
All boronated compounds tested worked as agents in boron neutron capture reactions. Cell survival data was calculated from semi-log plots and subjected to a regression analysis to obtain an X coefficient (kill constant) for each compound.

A549 lung cancer cells [2] = experiment: Cellular toxicity, colony survival assay in A549 lung cancer cells; details: for A549 cell survival (Table 1) / level above which all cell growth is suppressed: seven day experiment
Protocol: (§1) The cells were plated for undisturbed colony growth for seven to ten days and a survival assay was performed. Colonies were washed with isotonic saline and absolute methanol before staining with Giemsa and standard colony counting.

A549 lung cancer cells [3] = experiment: Cellular boron uptake by inductively coupled plasma mass spectroscopy; type: cell-based
Protocol: The measurement of total cellular boron was made using inductively coupled mass spectrometry. Boron concentrations were measured against a calibration curve generated with a series of NIST traceable standards. Yttrium and indium (20 ng/ml) internal standards were employed to correct for drift. Analyte recoveries were monitored by the addition of boron spikes (20 ng/ml) to the samples. Analyte response was corrected accordingly. Finally, a boron standard of 60 ng/ml was utilized to ensure continued calibration. […] The lung cancer cell culture with boron exposed cells was washed by centrifugation twice, and the supernate was removed by suction prior to chemical analysis. […] All the reagents for sample preparation were analytical grade. Concentrated nitric acid (1-2 ml) and 30% hydrogen peroxide was applied to the cells.
The nitric acid-hydrogen peroxide cocktail was allowed 96 hours for cellular digestion in tubes that facilitated the venting of generated gases. Intermittent stirring was also performed on the sample tubes. All contents were transformed to boron-free tubes and the final volume was adjusted with distilled water to a 10 ml total volume for each sample tested.

tumor cells [4] = details: cited from earlier work; for ratio of boron in tumor cells compared to normal cells: in vivo
tumor cells [5] = details: in vivo; cited from earlier work
A549 lung cancer cells [6] = details: for level above which all cell growth is suppressed: human, 10080 min
Protocol: as §1

[7] = test system: human glioblastoma multiforme (brain) tumors; experiment: Boron biodistribution (tumor, normal brain) in mice bearing human glioblastoma multiforme tumors; type: in vivo; details: sodium salt
Protocol: The water soluble sodium salt of the boron containing amino carboxylic compound VIII, was injected into four mice bearing human glioblastoma multiforme (brain) tumors on their hind quarter. One animal was sacrificed after 3 hours, 6 hours, 12 hours, and 24 hours and tissue samples were taken from the tumor, normal brain tissue, blood and muscle. At three hours the tumor contained 52 parts per million of boron and the normal brain contained only 7.6 ppm (a ratio of nearly 7:1). At twelve hours the tumor boron concentration was 37 ppm and the normal brain concentration was 3.7 ppm (a ratio of 10:1).

[8] = mice receiving the compound; cited from earlier work

Row | Molecule | kill constant (absolute value of X coefficient) (A549 lung cancer cells [1]) | A549 cell survival (Table 1) (A549 lung cancer cells [2]; 1.25 μg B/ml) | A549 cell survival (Table 1) (A549 lung cancer cells [2]; 2.5 μg B/ml) | A549 cell survival (Table 1) (A549 lung cancer cells [2]; 5.0 μg B/ml) | A549 cell survival (Table 1) (A549 lung cancer cells [2]; 10.0 μg B/ml) | A549 cell survival (Table 1) (A549 lung cancer cells [2]; 15.0 μg B/ml) | A549 cell survival (Table 1) (A549 lung cancer cells [2]; 20.0 μg B/ml) | Atoms of ^10 B in cell (A549 lung cancer cells [3]) | BNCT treatment outcome (tumor cells [5]) | other results
1 | 2-amino-5-[2-methyl]-1,2-dicarba-closo-dodecacarboran(12)-1-yl] pentane carboxylic acid [LSK 1-38] | 2.64 | 50 | 33 | 18 | 2 | 0 | 0 | 96 × 10^9 atoms ^10 B/cell |  | toxicity (A549 lung cancer cells [2]; A549 lung cancer cells): low toxicity; level above which all cell growth is suppressed (A549 lung cancer cells [2]): above 10 μg B/ml; cellular uptake (words) (A549 lung cancer cells [3]; listed as LSK1-38): excellent cellular uptake; cellular uptake (words) (A549 lung cancer cells [3]; listed as LSK-138): next highest cellular uptake
2 | sodium decahydrodecaborate |  |  |  |  |  |  |  |  | failed due to vascular damage caused by high blood levels of boron | ratio of boron in tumor cells compared to normal cells (tumor cells [4]): high ratios of boron in tumor cells compared to normal cells
3 | 5(5carboranyl-1-pentynyl) deoxyuridine [CN-V-264] | 2.88 | 10 | 4 | 0 | 0 | 0 | 0 | 50 × 10^9 atoms ^10 B/cell |  | level above which all cell growth is suppressed (A549 lung cancer cells [6]): above 2.5 μg B/ml; cellular uptake (words) (A549 lung cancer cells [3]): lowest in cellular uptake
4 | O=C(O)c1ccc(B(O)O)cc1 [p-carboxybenzeneboronic acid] |  |  |  |  |  |  |  |  | failed due to vascular damage caused by high blood levels of boron | ratio of boron in tumor cells compared to normal cells (tumor cells [4]): high ratios of boron in tumor cells compared to normal cells
5 | 1-Amino-3-[2-(1,7 dicarba-closo-dodecacaboran(12)-1-yl)ethyl]cyclobutanecarboxylic acid [ACBC] | 2.71 | 39 | 14 | 8 | 8 | 0 | 0 | 2749 × 10^9 atoms ^10 B/cell |  | toxicity (A549 lung cancer cells [6]): low toxicity; level above which all cell growth is suppressed (A549 lung cancer cells [6]): above 10 μg B/ml; cellular uptake (words) (A549 lung cancer cells [3]): greatest cellular uptake; also recorded: almost two orders of magnitude greater in uptake than the other compounds tested; also recorded: excellent cellular uptake
6 | 1-amino-3-[2-(7-(2-hydroxyethyl)-1,7-dicarba-nido-dodecacaboran(12)-ylethyl]cyclobutanecarboxylic acid [VIII] |  |  |  |  |  |  |  |  |  | normal brain boron concentration ([7]; 3 hours): 7.6 ppm; normal brain boron concentration ([7]; 12 hours): 3.7 ppm; tumor boron concentration ([7]; 3 hours after injection): 52 parts per million; tumor boron concentration ([7]; 12 hours): 37 ppm
7 | O=BOB1OB2OB([O-])OB(O1)O2.[Na+] [sodium pentaborate] |  |  |  |  |  |  |  |  | treatment failure because of the lack of localization of boron within tumor cells | 
8 | O=BOB(O)OB(O)OB=O [borax] |  |  |  |  |  |  |  |  | treatment failure because of the lack of localization of boron within tumor cells | 
9 | 2,4-divinyl-nido-o-carboranyldeuteroporphoryin IX [VCDP] |  |  |  |  |  |  |  |  |  | mortality of mice [8]: about 10%
10 | N[C@@H](Cc1ccc(B(O)O)cc1)C(=O)O [BPA, boronophenylalanine] |  |  |  |  |  |  |  |  |  | deleterious effects (tumor cells [4]; compared with porphyrin): without the deleterious effects seen, for example, with porphyrin
11 | 5(4carboranyl-1-butynyl) uridine [CDU-4] | 2.87 | 22 | 69 | 0 | 0 | 0 | 0 | 10 × 10^9 atoms ^10 B/cell |  | level above which all cell growth is suppressed (A549 lung cancer cells [2]): above 2.5 μg B/ml; cellular uptake (words) (A549 lung cancer cells [3]): lowest in cellular uptake
